The source of these data is patent US20250367283A1, “MEVALONATE PATHWAY INHIBITOR AS HIGHLY-EFFICIENT VACCINE ADJUVANT” (Tsinghua University, priority 2015, published 2025).

Assay [1] deals with PvGGPPS (geranylgeranyl pyrophosphate synthase from Plasmodium). Briefly: In vitro PvGGPPS enzymatic activity assay. The class given is biochemical. To be noted: GPP and IPP substrates. As to the method: PvGGPPs with 6 consecutive His at the N-terminus was induced to express in vitro, collected, and purified by Ni column. In vitro PvGGPPs enzymatic activity assay was performed in a 96-well plate at 200 μl of solution per well. The buffer of the system was 25 mM HEPES, 2.5 mM MgCl2, pH 7.4. Using GPP and IPP as reaction substrates, a 360 nm continuous spectrophotometric detection was performed in a phosphate lyase system. ORIGIN 8.0 software was used to plot and fit.

The test system of assay [2] is Plasmodium falciparum 3D7. Briefly: Test of plasmodium activity (SYBR-GREEN1). The class given is cell-based. To be noted: infected erythrocytes, 72 hours; read-out: Malaria (IC50/μM). As to the method: Plasmodium falciparum 3D7 was cultured with […] medium mixed with 10% human O-type blood serum and 25 mM HEPES. The cultivation process was maintained in a carbon dioxide incubator under 5% carbon dioxide. In vitro drug testing experiments were performed on a 96-well plate. The test drug was dissolved in PBS and pre-diluted with complete medium. Infected erythrocytes were cultured in triplicate for 72 hours in 3-fold serial dilutions of drug. Then an equal amount of SYBR-GREEN1 was added to each well. The detection was then performed at 485 nm for excitation light and 538 nm for emitted light. […] ORIGIN 8.0 software was used to plot and fit.

In assay [3] the target is humanized farnesyl pyrophosphate synthase (HsFPPS) (Homo sapiens (Human), UniProt P14324). Briefly: In vitro HsFPPS enzyme activity assay. The class given is biochemical. As to the method: The measurement method is briefly described as follows: the expression of HsFPPS with 6 consecutive His at the N-terminus was induced in vitro, collected, and purified by Ni column. An in vitro HsFPPS enzyme activity assay was performed in a 96-well plate with 200 μl of solution per well. The buffer of the system was 25 mM HEPES, 2.5 mM MgCl2, pH 7.4. Using DMAPP and IPP as reaction substrates, the change of the UV value at a wavelength of 360 nm was monitored in real time in a phosphate lyase system. The ORIGIN 8.0 software was used to plot and fit. The IC50 values for the inhibition of FPPS by the TH-Z80 series of compounds were shown in the following table, in micromoles per liter (μM).
Sequence of humanized farnesyl pyrophosphate synthase (HsFPPS) (P14324 whole entry, looked up): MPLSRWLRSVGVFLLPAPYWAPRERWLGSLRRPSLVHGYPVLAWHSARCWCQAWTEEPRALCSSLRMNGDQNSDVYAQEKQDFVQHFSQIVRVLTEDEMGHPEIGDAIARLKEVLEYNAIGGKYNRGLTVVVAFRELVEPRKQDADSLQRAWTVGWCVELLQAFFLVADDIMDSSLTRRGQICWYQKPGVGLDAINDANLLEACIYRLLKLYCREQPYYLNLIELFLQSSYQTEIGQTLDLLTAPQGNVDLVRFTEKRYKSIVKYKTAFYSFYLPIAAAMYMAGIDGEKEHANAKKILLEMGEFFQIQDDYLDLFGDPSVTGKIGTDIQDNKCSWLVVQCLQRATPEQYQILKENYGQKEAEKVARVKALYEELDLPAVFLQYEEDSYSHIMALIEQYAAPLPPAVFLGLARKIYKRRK
HsFPPs with 6 consecutive His at the N-terminus was induced to express in vitro, collected, and purified by Ni column. In vitro HsFPPs enzymatic activity assay was performed in a 96-well plate at 200 μl of solution per well. The buffer of the system was 25 mM HEPES, 2.5 mM MgCl2, pH 7.4. Using DMAPP and IPP as reaction substrates, the changes of UV at 360 nm were monitored in real-time in phosphate lyase system. ORIGIN 8.0 software was used to plot and fit.

The next assay relates to MDA-MB-231 cells. Description: MDA-MB-231 proliferation MTT test. The assay is classed as cell-based, human. To be noted: 72 hours. As to the method:
• Drug dissolution: […] The prepared bisphosphonate stock solution was diluted with DMEM complete medium. The maximum concentration was 1 mM. The dilution was performed serially in a ratio of 1:3.2 with a total of 11 concentration gradients; a. MDA-MB-231 cells were digested the day before. Centrifugation was performed at 1000 rmp for 3 min. The cells were counted. The cells were seeded into a 96-well plate at 3000 cells/well in a volume of 100 μl per well and cultured for 14-16 h. It should be noted that the cell count should be accurate, and the amount of cells seeded per well should be consistent. The cell suspension can be gently shaken in the intermittence of plating, or a row of cells were plated and the cell suspension was pipetted gently with a pipette. The speed of pipetting into the 96-well plate with a pipette should not be too fast or too slow, in order to avoid uneven distribution of cells in the plate, affecting the experiments; the wells at the fringe of the 96-well plate will evaporate slightly faster and the concentration of the solution will change slightly faster. Under normal situation, the central 60 wells should be selected for stimulation. Also, the pipetted liquid should be prevented from creating bubbles. b. After the cells had adhered, the liquid in the 96-well plate was pipetted out and discarded. […] c. 72 hours after the action of drug, the prepared MTT solution (immediately before use, a certain amount of MTT powder was weighed and dissolved in PBS at 5 mg/ml, under dark, filter with 0.22 filter membrane) was added directly to each well with 20 μl per well and continued to culture for 4 hours; d. The filter paper (which can be replaced by an absorbent paper) was laid, and the plate was inverted gently (be careful to prevent the crystal in the well from dropping). After the liquid in the wells was removed, 150 μl of DMSO was added to dissolve the crystals, and the mixture was shaken thoroughly with a shaker for a period of time just to dissolve the crystals. The absorbance (OD value) of each well was measured at 570 nm with ELIASA. The mean value of blank control was calculated as OD Blank. OD value for each well=OD measured-OD Blank. ODNT mean value was calculated. […] Mean and standard error were then calculated. The mean and standard error of each group of drug concentration (uM) and corresponding drug inhibition rate were fitted by Graph Prism software to obtain the IC50 of the drug.
On the technique in general: Formazan colour is commonly taken as a measure of viable cells.

In assay [4] the test system is anti-OVA IgM and IgG antibodies. Description: Combined adjuvant effect of FPPS inhibitor and TLR agonist, OVA titer. The assay is classed as in vivo, mice. Conditions: soles of right feet. As to the method:
Two compounds, TH-Z93 and Imiquimod, were formulated at a concentration of 4 mg/ml, and OVA antigen at a concentration of 10 mg/ml. When used alone, 5 μl of TH-Z93 or imiquimod was added as an adjuvant and mixed with 10 μl of antigen and 5 μl of PBS. When two adjuvants were used in combination, each of the adjuvants were added in an amount of 5 μl and mixed with 10 μl of antigen, and the total volumes were 20 μl. The mice used are of C57B/6 strain. An equal volume of PBS without any adjuvant was used for mice in the control group. The mice was injected at the soles of the right feet. On Day 7 and Day 14 after immunization, blood was taken from the mice's orbits, and 100 μl was taken for each mouse. The obtained blood was left at 4° C. overnight, and then the serum was separated. The titers of anti-OVA IgM and IgG antibodies in the serum were determined.

Assay [5] concerns the target HsGGPPS (humanized geranylgeranyl pyrophosphate synthase) (Homo sapiens (Human), UniProt O95749). Description: HsGGPPS enzyme inhibition test. The assay is classed as biochemical. As to the method: The inhibitory activities of compounds TH-Z144 and TH-Z145 on GGPPS (geranylgeranyl pyrophosphate synthase) were tested by referring to the expression and purification method for HsGGPPS (humanized geranylgeranyl pyrophosphate synthase) in the reference (Szabo, C. M., et al., Inhibition of Geranylgeranyl Diphosphate Synthase by Bisphosphonates and Diphosphates: A Potential Route to New Bone Antiresorption and Antiparasitic Agents. Journal of Medicinal Chemistry, 2002. 45 (11): p. 2185-2196.) and the method for testing enzyme activity in the reference (Zhang, Y., et al., Lipophilic Bisphosphonates as Dual Farnesyl/Geranylgeranyl Diphosphate Synthase Inhibitors: An X-ray and NMR Investigation. Journal of the American Chemical Society, 2009. 131 (14): p. 5153-5162.) The data of the activity test were as follows: […]

In assay [6] the test system is anti-OVA IgM and IgG antibodies. Description: OVA evaluation system: adjuvant activity in antibody titer in mice. Conditions: GGPPS inhibitors 100 μg with OVA, right sole, Day 7 and Day 14. The class given is in vivo. As to the method:
OVA evaluation system was used to determine adjuvant activity in antibody titer.
Mice of C57B/6 strain were used. The mice in the experimental group were injected with the obtained mixture of each of the statins and OVA antigen through soles injection, with 20 μl for each mouse. The mice in the control group were injected with a 1:1 mixture of PBS or DMSO (10 μl) and 10 μl OVA antigen (PBS or DMSO is 10 μl, respectively, and the antigen is 10 μl) through soles injection, with 20 μl for each mouse. On Day 7 and Day 14 after immunization, blood was taken from the mice's orbits, with 100 μl was taken from each mouse. The obtained blood was left at 4° C. overnight, and centrifuged at 6000 rpm for 8 min. The supernatant serum was removed and the titers of anti-OVA IgM and IgG antibodies in the serum were determined.
Test of the OVA antibody titer: The OVA protein was diluted to a concentration of 2 μg/ml with a carbonate solution of pH 9.6, coated in a 96-well ELISA plate at 50 μl per well, and left at 4° C. overnight. The ELISA plate was washed five times with PBS containing 0.05% Tween 20, blocked with 1% BSA solution at 200 μl per well, and incubated at room temperature for 2 h. The ELISA plate was washed five times with PBST (Phosphate Buffered Saline with Tween), a 2-fold serial dilution of the mouse serum after immunized with OVA was added at 50 μl per well and incubated at room temperature for 2 h. After the ELISA plate was washed five times with PBST, HRP (horseradish peroxidase)-labeled goat-anti-mouse IgM or IgG antibody was added and incubated at room temperature for 45 min. The ELISA plate was washed five times with PBST, and a color developing solution of sodium citrate OPD (o-phenylenediamine) was added. After 10 min of color development in the dark, sulfuric acid was added to terminate the reaction. The reading was performed with ELIASA OD490. The maximum serum dilution factor, when the ratio of light absorptions of the experimental group to the control group was >2.0, was the titer of the anti-OVA antibody in the serum.
Each test compound was formulated at a concentration of 2 mg/ml and the concentration of OVA antigen was 2 mg/ml. Each compound was mixed with OVA at 1:1. Each C57B/6 mouse in the experimental group was injected with 100 μl of the mixture (containing 50 μl of the antigen and 50 μl of the compound) by intramuscular injection at the right thigh. On Day 7 and Day 14 after immunization, blood was taken from the mice's orbit, and 100 μl was taken for each mouse. The obtained blood was allowed to stand at 4° C. overnight, and centrifuged at 6000 rpm for 8 min. The supernatant serum was removed, and the titers of anti-OVA IgM and IgG antibodies in the serum were determined.
Method: each of the test compounds (the 10 bisphosphonates as described above) was mixed with the OVE antigen at 1:1, and the concentrations of bisphosphonic acid and OVA were both 10 mg/ml. Mice of C57B/6 strain were used. The mice in the experimental group were injected with the mixture of each of the test compounds and OVA antigen through soles injection, with 20 μl for each mouse, and wherein the amounts of OVA antigen and each of the test compounds were both 100 ug. The mice in the control group were injected with a 1:1 mixture of […] and 10 μl OVA antigen through sole injection. On Day 7 and Day 14 after immunization, blood was taken from the mice's orbits, and 100 μl was taken from each mouse.
The obtained blood was left at 4° C. overnight, and centrifuged at 6000 rpm for 8 min. The supernatant serum was removed, and the titers of anti-OVA IgM and IgG antibodies in the serum were determined.
Method: TH-Z144 and TH-Z145 were prepared at the concentration of 10 mg/ml, the concentration of OVA antigen was also 10 mg/ml, and the compound and the antigen were mixed at 1:1. Mice of C57B/6 strain were used.

[7] abbreviates: Example 15 table, read-out: HsFPPS (IC50/μM).
[8] abbreviates: TH-Z80 series, DMAPP and IPP substrates, pH 7.4, read-out: IC50 for inhibition of FPPS.

Read-outs that look alike come from different tables or passages of the source.

Sequence of HsGGPPS (humanized geranylgeranyl pyrophosphate synthase) (O95749 whole entry, looked up): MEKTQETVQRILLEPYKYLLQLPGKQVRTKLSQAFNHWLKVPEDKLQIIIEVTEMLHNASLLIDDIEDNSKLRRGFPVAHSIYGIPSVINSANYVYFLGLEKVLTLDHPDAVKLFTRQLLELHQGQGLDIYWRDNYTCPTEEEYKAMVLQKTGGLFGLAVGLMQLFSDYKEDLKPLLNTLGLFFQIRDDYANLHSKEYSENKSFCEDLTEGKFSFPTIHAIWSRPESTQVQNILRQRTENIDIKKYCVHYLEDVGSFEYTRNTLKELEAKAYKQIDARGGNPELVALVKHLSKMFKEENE

As for `COc1ccc2c(c1)ncn2CC(O)(P(=O)(O)O)P(=O)(O)O` [TH-Z79], the IC50 in assay [1] was 0.61 µM; in assay [2], 0.96 µM; in assay [3] (setting [7]) it was 0.1 to 0.3 µM; in assay [3] (setting [8]), 0.1 to 0.3 µM; in the assay on MDA-MB-231 cells it was 50900 nM.
In the case of `CC(C)Cn1cnc2c(N)nc3ccccc3c21` [imiquimod, reference compound], in assay [4], the “antibody titers vs PBS control, adjuvant used alone” value was “significant high titers”.
In the case of `CCCCOc1ccc2c(c1)ncn2CC(O)(P(=O)(O)O)P(=O)(O)O` [TH-Z150], the IC50 in assay [1] is 0.28 µM; in assay [2] it was 0.78 µM; in assay [3] (setting [7]), 0.14 µM; in assay [3] (setting [8]) it was 0.14 µM; with MDA-MB-231 cells, 128000 nM.
In the case of `CCCCCCOc1cccc(CC(P(=O)(O)O)P(=O)(O)O)c1` [TH-Z144, (2-(3-(hexyloxy)phenyl)ethane-1,1-diyl)bisphosphonic acid], the “IC50 (inhibition of GGPPS)” value in assay [5] is given as “effectively inhibit the activity of GGPPS”. Also, the IC50 in assay [5] (read-out: IC50 (inhibition of GGPPS)) was determined as 2760 nM. In addition, in assay [6], the “IgM and IgG antibody titers vs PBS control” value was “significantly higher titers”.
`CCOc1ccc2c(c1)ncn2CC(O)(P(=O)(O)O)P(=O)(O)O` [TH-Z148]: the IC50 in assay [1] was found to be 0.56 µM; in assay [2], 1.86 µM; in assay [3] (setting [7]), 0.068 µM; in assay [3] (setting [8]), 0.068 µM; in the assay with MDA-MB-231 cells it was 7300 nM.
